Blank lines part the entries; values can stand above or below the molecule they belong to.
Assays:
CDK9/Cyclin T1 = CDK9/Cyclin T1 (Homo sapiens (Human), UniProt P50750); test: CDK9 enzyme assay (LANCE ULight TR-FRET kinase assay); assay type: biochemical; conditions: 1000 μM ATP, 100 nM ULight MBP, kinase reaction 1 hour
Experimental: CDK9 enzyme activities were measured using LANCE ULight TR-FRET kinase assay reagents (PerkinElmer, Waltham, Mass.). Compounds were diluted in 100% DMSO then diluted with 1:10 in serine/threonine kinase assay buffer containing 20 mM HEPES, 10 mM MgCl2, […], and 0.0075% Triton X-100. Equal volume of the compound dilutions was added to a final reaction mixture containing LANCE detection buffer (PerkinElmer CR97-100), 100 nM ULight MBP (PerkinElmer TRF0109M), 1000 μM ATP, and CDK9/Cyclin T1 (Carna Biosciences 04-110). The kinase reaction was carried out for 1 hour before addition of stopping buffer to a final of 20 mM EDTA and 0.5 nM of LANCE Ultra Europium anti-phospho-MBP antibody (PerkinElmer TRF0201M) in LANCE detection buffer. The reaction was incubated for 1 hour and the signal was read in Envision in TR-FRET mode (excitation at 320 nm and emission at 615/665 nm).

H929 cells = test: Cell viability assay (Cell TiterGlo); assay type: cell-based; conditions: Homo sapiens, NCI-H929, 24 hours at 37° C., Cell TiterGlo luminescence
Experimental: The cell viability assay was performed using H929 cells. Cells were seeded in 96-well plates at 10,000 cells/well and, after overnight incubation, treated with compounds in a dose response of 3-fold dilutions from 10 μM to 0.005 μM ([…], 0.1% final DMSO concentration). After 24 hours at 37° C., cell viability was measured using Cell TiterGlo reagent (Promega) with a luminescence reader.

Chain of CDK9/Cyclin T1 (P50750 whole entry): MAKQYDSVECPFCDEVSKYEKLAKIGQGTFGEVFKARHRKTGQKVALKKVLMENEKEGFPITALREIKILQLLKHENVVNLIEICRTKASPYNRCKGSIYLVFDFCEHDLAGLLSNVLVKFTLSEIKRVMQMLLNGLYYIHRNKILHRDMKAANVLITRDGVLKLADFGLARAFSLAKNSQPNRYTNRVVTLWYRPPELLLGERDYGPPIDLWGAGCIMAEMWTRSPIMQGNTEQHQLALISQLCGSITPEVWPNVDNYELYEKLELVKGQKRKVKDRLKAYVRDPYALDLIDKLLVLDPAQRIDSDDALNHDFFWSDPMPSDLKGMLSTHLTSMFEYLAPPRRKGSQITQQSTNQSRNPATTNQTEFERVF
Chain of CDK9/Cyclin T1 (O60563 whole entry partner): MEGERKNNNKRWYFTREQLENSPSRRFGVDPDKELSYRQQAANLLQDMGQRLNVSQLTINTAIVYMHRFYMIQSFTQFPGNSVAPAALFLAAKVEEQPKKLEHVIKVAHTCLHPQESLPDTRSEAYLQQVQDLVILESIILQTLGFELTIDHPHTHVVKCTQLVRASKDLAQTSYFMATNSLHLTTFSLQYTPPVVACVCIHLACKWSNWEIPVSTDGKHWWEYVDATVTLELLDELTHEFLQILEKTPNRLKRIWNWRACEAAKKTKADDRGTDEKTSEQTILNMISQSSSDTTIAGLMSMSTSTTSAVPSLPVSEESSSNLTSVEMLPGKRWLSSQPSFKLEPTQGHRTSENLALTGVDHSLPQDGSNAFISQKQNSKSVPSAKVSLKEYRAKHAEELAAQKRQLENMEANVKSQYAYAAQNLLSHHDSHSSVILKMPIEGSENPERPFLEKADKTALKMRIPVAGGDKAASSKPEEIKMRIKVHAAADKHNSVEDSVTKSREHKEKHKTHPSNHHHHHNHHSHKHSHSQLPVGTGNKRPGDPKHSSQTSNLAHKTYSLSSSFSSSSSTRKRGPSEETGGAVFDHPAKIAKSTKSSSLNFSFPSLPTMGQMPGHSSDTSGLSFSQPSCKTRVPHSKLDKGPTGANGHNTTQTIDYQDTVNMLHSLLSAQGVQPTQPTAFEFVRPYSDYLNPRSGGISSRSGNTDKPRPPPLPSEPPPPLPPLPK

Structure (SMILES): CN1Cc2c(-c3ccc(S(C)(=O)=O)nc3)[nH]c3nccc(c23)-c2cc(F)ccc21 [Example 45, 10-fluoro-7-methyl-5-[6-(methylsulfonyl)pyridin-3-yl]-6,7-dihydro-4H-3,4,7-triazadibenzo[cd,f]azulene]
IC50 (CDK9/Cyclin T1): 110 nM | IC50 (H929 cells): 830 nM

Structure (SMILES): CN1Cc2c(-c3cnc(N)nc3)[nH]c3nccc(c23)-c2cc(F)ccc21 [Example 46, 5-(10-fluoro-7-methyl-6,7-dihydro-4H-3,4,7-triazadibenzo[cd,f]azulen-5-yl)pyrimidin-2-amine]
IC50 (CDK9/Cyclin T1): 3300 nM | IC50 (H929 cells): > 10000 nM

Structure (SMILES): CN1Cc2c(-c3ccc(C(=O)O)cc3)[nH]c3nccc(c23)-c2cc(F)ccc21 [Example 47, 4-(10-fluoro-7-methyl-6,7-dihydro-4H-3,4,7-triazadibenzo[cd,f]azulen-5-yl)benzoic acid]
IC50 (CDK9/Cyclin T1): 150 nM | IC50 (H929 cells): 9800 nM

Structure (SMILES): CN1Cc2c(C3=CCNCC3)[nH]c3ncc(F)c(c23)-c2cc(F)ccc21 [Example 48, 1,10-difluoro-7-methyl-5-(1,2,3,6-tetrahydropyridin-4-yl)-6,7-dihydro-4H-3,4,7-triazadibenzo[cd,f]azulene]
IC50 (CDK9/Cyclin T1): 27 nM | IC50 (H929 cells): 20 nM

Structure (SMILES): CN1Cc2c(C3=CCN(C(=O)OC(C)(C)C)CC3)[nH]c3ncc(F)c(c23)-c2cc(F)ccc21 [Example 49, tert-butyl 4-(1,10-difluoro-7-methyl-6,7-dihydro-4H-3,4,7-triazadibenzo[cd,f]azulen-5-yl)-3,6-dihydropyridine-1(2H)-carboxylate]
IC50 (CDK9/Cyclin T1): 780 nM | IC50 (H929 cells): 780 nM

Structure (SMILES): CN1Cc2c(C3=CCN(CC(=O)N4CC(F)(F)C4)CC3)[nH]c3nccc(c23)-c2cc(F)ccc21 [Example 54, 1-(3,3-difluoroazetidin-1-yl)-2-[4-(10-fluoro-7-methyl-6,7-dihydro-4H-3,4,7-triazadibenzo[cd,f]azulen-5-yl)-3,6-dihydropyridin-1(2H)-yl]ethanone]
IC50 (CDK9/Cyclin T1): 63 nM | IC50 (H929 cells): 92 nM

Structure (SMILES): CN(C)C(=O)CN1[C@H]2CC[C@@H]1C=C(c1[nH]c3nccc4c3c1CN(C)c1ccc(F)cc1-4)C2 [Example 55, 2-[(1R,5S)-3-(10-fluoro-7-methyl-6,7-dihydro-4H-3,4,7-triazadibenzo[cd,f]azulen-5-yl)-8-azabicyclo[3.2.1]oct-2-en-8-yl]-N,N-dimethylacetamide]
IC50 (CDK9/Cyclin T1): 160 nM | IC50 (H929 cells): 150 nM

Structure (SMILES): CN1Cc2c(C3=C[C@H]4CC[C@@H](C3)N4S(C)(=O)=O)[nH]c3nccc(c23)-c2cc(F)ccc21 [Example 56, 10-fluoro-7-methyl-5-[(1R,5S)-8-(methylsulfonyl)-8-azabicyclo[3.2.1]oct-2-en-3-yl]-6,7-dihydro-4H-3,4,7-triazadibenzo[cd,f]azulene]
IC50 (CDK9/Cyclin T1): 96 nM | IC50 (H929 cells): 680 nM

Structure (SMILES): CNC(=O)N1[C@H]2CC[C@@H]1C=C(c1[nH]c3nccc4c3c1CN(C)c1ccc(F)cc1-4)C2 [Example 57, (1R,5S)-3-(10-fluoro-7-methyl-6,7-dihydro-4H-3,4,7-triazadibenzo[cd,f]azulen-5-yl)-N-methyl-8-azabicyclo[3.2.1]oct-2-ene-8-carboxamide]
IC50 (CDK9/Cyclin T1): 200 nM | IC50 (H929 cells): 2200 nM

Structure (SMILES): CN1Cc2c(C3=C[C@H]4CC[C@@H](C3)N4CC(=O)O)[nH]c3nccc(c23)-c2cc(F)ccc21 [Example 58, [(1R,5S)-3-(10-fluoro-7-methyl-6,7-dihydro-4H-3,4,7-triazadibenzo[cd,f]azulen-5-yl)-8-azabicyclo[3.2.1]oct-2-en-8-yl]acetic acid]
IC50 (CDK9/Cyclin T1): 170 nM | IC50 (H929 cells): 1400 nM

Structure (SMILES): CN1Cc2c(C3=CC4CNCC4C3)[nH]c3nccc(c23)-c2cc(F)ccc21 (stereo not drawn) [Example 59, 10-fluoro-5-(1,2,3,3a,4,6a-hexahydrocyclopenta[c]pyrrol-5-yl)-7-methyl-6,7-dihydro-4H-3,4,7-triazadibenzo[cd,f]azulene]
IC50 (CDK9/Cyclin T1): 88 nM | IC50 (H929 cells): 190 nM

Structure (SMILES): CN1Cc2c(-c3cccnc3)[nH]c3nccc(c23)-c2cc(F)ccc21 [Example 60, 10-fluoro-7-methyl-5-(pyridin-3-yl)-6,7-dihydro-4H-3,4,7-triazadibenzo[cd,f]azulene]
IC50 (CDK9/Cyclin T1): 75 nM | IC50 (H929 cells): 320 nM

Structure (SMILES): CN1Cc2c(C3=C[C@H]4CC[C@@H](C3)N4)[nH]c3nccc(c23)-c2cc(F)ccc21 [Example 62, 5-[(1R,5S)-8-azabicyclo[3.2.1]oct-2-en-3-yl]-10-fluoro-7-methyl-6,7-dihydro-4H-3,4,7-triazadibenzo[cd,f]azulene]
IC50 (CDK9/Cyclin T1): 46 nM | IC50 (H929 cells): 150 nM

Structure (SMILES): CN1Cc2c(C3=CCN(CC(=O)OC(C)(C)C)CC3)[nH]c3ncc(F)c(c23)-c2cc(F)ccc21 [Example 65, tert-butyl[4-(1,10-difluoro-7-methyl-6,7-dihydro-4H-3,4,7-triazadibenzo[cd,f]azulen-5-yl)-3,6-dihydropyridin-1(2H)-yl]acetate]
IC50 (CDK9/Cyclin T1): 100 nM | IC50 (H929 cells): 140 nM

More lines, now with the values ahead:

IC50 (CDK9/Cyclin T1): 120 nM | IC50 (H929 cells): 960 nM
Structure (SMILES): CN(C)C(=O)C1CC=C(c2[nH]c3nccc4c3c2CN(C)c2ccc(F)cc2-4)CC1 (stereo not drawn) [Example 50, 4-(10-fluoro-7-methyl-6,7-dihydro-4H-3,4,7-triazadibenzo[cd,f]azulen-5-yl)-N,N-dimethylcyclohex-3-ene-1-carboxamide]

IC50 (CDK9/Cyclin T1): 110 nM | IC50 (H929 cells): 470 nM
Structure (SMILES): CN1Cc2c(C3=CCC(C(=O)N4CC(O)C4)CC3)[nH]c3nccc(c23)-c2cc(F)ccc21 (stereo not drawn) [Example 51, [4-(10-fluoro-7-methyl-6,7-dihydro-4H-3,4,7-triazadibenzo[cd,f]azulen-5-yl)cyclohex-3-en-1-yl](3-hydroxyazetidin-1-yl)methanone]

IC50 (CDK9/Cyclin T1): 63 nM | IC50 (H929 cells): 150 nM
Structure (SMILES): CNC(=O)C1CC=C(c2[nH]c3nccc4c3c2CN(C)c2ccc(F)cc2-4)CC1 (stereo not drawn) [Example 52, 4-(10-fluoro-7-methyl-6,7-dihydro-4H-3,4,7-triazadibenzo[cd,f]azulen-5-yl)-N-methylcyclohex-3-ene-1-carboxamide]

IC50 (CDK9/Cyclin T1): 57 nM | IC50 (H929 cells): 47 nM
Structure (SMILES): CN1Cc2c(C3=CCN(CC(=O)N(CCO)CCO)CC3)[nH]c3nccc(c23)-c2cc(F)ccc21 [Example 53, 2-[4-(10-fluoro-7-methyl-6,7-dihydro-4H-3,4,7-triazadibenzo[cd,f]azulen-5-yl)-3,6-dihydropyridin-1(2H)-yl]-N,N-bis(2-hydroxyethyl)acetamide]

IC50 (CDK9/Cyclin T1): 400 nM | IC50 (H929 cells): 1200 nM
Structure (SMILES): CCOC(=O)C1CC=C(c2[nH]c3nccc4c3c2CN(C)c2ccc(F)cc2-4)CC1 (stereo not drawn) [Example 61, ethyl 4-(10-fluoro-7-methyl-6,7-dihydro-4H-3,4,7-triazadibenzo[cd,f]azulen-5-yl)cyclohex-3-ene-1-carboxylate]

IC50 (CDK9/Cyclin T1): 38 nM | IC50 (H929 cells): 90 nM
Structure (SMILES): CN(CC(O)CO)C(=O)CN1CC=C(c2[nH]c3nccc4c3c2CN(C)c2ccc(F)cc2-4)CC1 (stereo not drawn) [Example 63, N-(2,3-dihydroxypropyl)-2-[4-(10-fluoro-7-methyl-6,7-dihydro-4H-3,4,7-triazadibenzo[cd,f]azulen-5-yl)-3,6-dihydropyridin-1(2H)-yl]-N-methylacetamide]

IC50 (CDK9/Cyclin T1): 62 nM | IC50 (H929 cells): 94 nM
Structure (SMILES): CN1Cc2c(C3=CCN(CC(=O)N4CCC[C@@H]4CO)CC3)[nH]c3nccc(c23)-c2cc(F)ccc21 [Example 64, 2-[4-(10-fluoro-7-methyl-6,7-dihydro-4H-3,4,7-triazadibenzo[cd,f]azulen-5-yl)-3,6-dihydropyridin-1(2H)-yl]-1-[(2R)-2-(hydroxymethyl)pyrrolidin-1-yl]ethanone]

Source: patent US9328112B2, “Tetracyclic CDK9 kinase inhibitors” (AbbVie Inc., priority 2014, dated 2016)
